Measurements taken from ChEMBL document CHEMBL2440079, “Synthesis and in vitro evaluation of a novel radioligand for αvβ3 integrin receptor imaging: [18F]FPPA-c(RGDfK)” (Bioorg Med Chem Lett, 2013).
Activity calls are given as the source filed them. The rule behind the calls is not given here.

Columns and labels:
Integrin alpha-5/beta-1 = Integrin alpha-5/beta-1 (Homo sapiens, UniProt P05556+P08648); assay: Binding affinity to soluble truncated human recombinant 6His-tagged alpha5beta1 and integrins were expressed in HEK293T cells after 2 hrs by competition ELISA-like assay; assay type: cell-based, HEK-293T
Integrin alpha-V/beta-3 [1] = target: T1, Integrin alpha-V/beta-3 (Homo sapiens, UniProt P05106+P06756); assay: Binding affinity to soluble truncated human recombinant Fc-tagged alphaVbeta3 and integrins were expressed in HEK293T cells after 2 hrs by competition ELISA-like assay; assay type: cell-based, HEK-293T
Integrin alpha-V/beta-3 [2] = target: T1, Integrin alpha-V/beta-3; assay: Activation of alphaVbeta3 integrin in HUVEC at 10 uM by flow cytometry; assay type: protein-complex assay
HEK-293T = assay: Selectivity ratio of IC50 for soluble truncated human recombinant 6His-tagged alpha5beta1 and integrins were expressed in HEK293T cells to IC50 for soluble truncated human recombinant Fc-tagged alphaVbeta3 and integrins; assay type: cell-based

SMILES | IC50 (Integrin alpha-5/beta-1) [nM] | IC50 (Integrin alpha-V/beta-3 [1]) [nM] | Activity (Integrin alpha-V/beta-3 [2]) | Ratio IC50 (HEK-293T)
NC(N)=NCCC[C@@H]1NC(=O)[C@H](CCCCn2cc(CCC(=O)Nc3ccc(F)cc3)nn2)NC(=O)[C@@H](Cc2ccccc2)NC(=O)[C@H](CC(=O)O)NC(=O)CNC1=O | 3650 | 10.6 | – | –
N=C(N)NCCC[C@@H]1NC(=O)[C@H](CCCCn2cc(CCC(=O)Nc3ccc(F)cc3)nn2)NC(=O)[C@@H](Cc2ccccc2)NC(=O)[C@H](CC(=O)O)NC(=O)CNC1=O | – | – | Active | 300
